# Test results: patent US10655185B2, “Methods for diagnosis and prognosis of epithelial tumors” (H. Lee Moffitt Cancer Center and Research Institute, Inc., priority 2014, dated 2020)
# Test system: LNCaP-104S cells
# Experiment: Genome-wide miRNA expression profiling of androgen deprived / androgen blocked LNCaP cells
# Assay type: cell-based
# Excerpt: FIGS. 1A and 1B show expression of miR-17-92 and Frabin in Androgen Deprived LNCaP Cells. The androgen dependent cell line, LNCaP-104S, was subjected to androgen deprivation or androgen blockade for 3 weeks. Genome-wide miRNA expression profiling identified the miR-17-92 family to be down regulated by 1 week, and further reduced at 3 weeks of treatment. […] FIG. 1B is a Western blot of FGD4/Frabin expression in treated and untreated LNCaP-104S cells.
# Prolonged androgen blockade leads to outgrowth of androgen independent (AI) cells and the development of castration resistant prostate cancer (CRPC). The transition to androgen independence can occur through several adaptive mechanisms and usually results in the acquisition of a more aggressive phenotype, compared to their androgen sensitive progenitors. […] However, the role of miRNAs in progression of androgen sensitive prostate cancer to CRPC has not been clearly defined. To study this transition, androgen sensitive (AS) LNCaP prostate cancer cells were subjected to androgen blockade until a subset of cells (CDXR) survived. […] The miR-17-92 cluster is one of the groups of miRNAs that is down regulated as the cancer cells progresses towards androgen […] (ADT) resistance.
structure (smiles),measurement,setting,value
CC(O)(CS(=O)(=O)c1ccc(F)cc1)C(=O)Nc1ccc(C#N)c(C(F)(F)F)c1 (stereo not shown) [CDX],fold change in expression (Δ Change) of hsa-miR-17,1 wk CDX,−3.37
same,fold change in expression (Δ Change) of hsa-miR-17*,1 wk CDX,−3.13
same,fold change in expression (Δ Change) of hsa-miR-18a,1 wk CDX,−4.36
same,fold change in expression (Δ Change) of hsa-miR-18b,1 wk CDX,−2.28
same,fold change in expression (Δ Change) of hsa-miR-20a,1 wk CDX,−3.31
same,fold change in expression (Δ Change) of hsa-miR-20a*,1 wk CDX,−1.25
same,fold change in expression (Δ Change) of hsa-miR-20b*,1 wk CDX,−0.56
same,fold change in expression (Δ Change) of hsa-miR-106a,1 wk CDX,−3.18
same,fold change in expression (Δ Change) of hsa-miR-17,3 wks CDX,−24.99
same,fold change in expression (Δ Change) of hsa-miR-17*,3 wks CDX,−3.94
same,fold change in expression (Δ Change) of hsa-miR-18a,3 wks CDX,−14.13
same,fold change in expression (Δ Change) of hsa-miR-18b,3 wks CDX,−21.36
same,fold change in expression (Δ Change) of hsa-miR-20a,3 wks CDX,−4.12
same,fold change in expression (Δ Change) of hsa-miR-20a*,3 wks CDX,−18.17
same,fold change in expression (Δ Change) of hsa-miR-20b*,3 wks CDX,−4.60
same,fold change in expression (Δ Change) of hsa-miR-106a,3 wks CDX,−9.40
